Experimental data: US10542757B2, “Compositions comprising a biological control agent and an insecticide” (priority 2012, dated 2020)

Tests used:
Format in all cases: in vivo
[1] = system: caterpillars of the beet army worm (Spodoptera exigua); assay: Spodoptera exigua spray test; conditions: mortality, cotton leaves sprayed, 0.1 ppm
Experimental: (§1) For all examples efficiencies of the compositions comprising at least one BCA and at least one specific insecticide has been determined by the “Colby-formula”: The expected efficacy of a given combination of two compounds is calculated as follows (see Colby, S. R., “Calculating Synergistic and antagonistic Responses of Herbicide Combinations”, Weeds 15, pp. 20-22, 1967):
(§2) • X is the efficacy expressed in % mortality of the untreated control for test compound A at a concentration of m ppm respectively m g/ha, • Y is the efficacy expressed in % mortality of the untreated control for test compound B at a concentration of n ppm respectively n g/ha, • E is the efficacy expressed in % mortality of the untreated control using the mixture of A and B at m and n ppm respectively m and n g/ha, then
(§3) If the observed insecticidal efficacy of the combination is higher than the one calculated as “E”, then the combination of the two compounds is more than additive, i.e., there is a synergistic effect.
(§4) To produce a suitable preparation of active compound, 1 part by weight of active compound is mixed with the stated amount of solvent and emulsifier, and the concentrate is diluted with emulsifier-containing water to the desired concentration. […]
(§5) After the specified period of time, mortality in % is determined. […] The mortality values determined thus are recalculated using the Colby-formula (see above).

[2] = system: green peach aphid (Myzus persicae); assay: Myzus persicae spray test (MYZUPE); conditions: mortality, Chinese cabbage leaf-disks sprayed
Experimental: as §1, §2, §3
(§6) To produce a suitable preparation of active compound, 1 part by weight of active compound is mixed with the stated amount of solvent and emulsifier, and the concentrate is diluted with emulsifier-containing water to the desired concentration. To produce a suitable preparation of a spore suspension the spores are diluted with emulsifier-containing water to the desired concentration.
Chinese cabbage (Brassica pekinensis) leaf-disks infected with all instars of the green peach aphid (Myzus persicae), are sprayed with a preparation of the active ingredient of the desired concentration.
After the specified period of time, mortality in % is determined. 100% means all aphids have been killed; 0% means none of the aphids have been killed. The mortality values determined thus are recalculated using the Colby-formula (see above).

[3] = system: fall armyworm larvae (Spodoptera frugiperda); assay: Spodoptera frugiperda spray test; conditions: mortality, maize leaf sections sprayed, 0.8 g ai/ha
Experimental: as §1, §2, §3
To produce a suitable preparation of the active compound, 1 part by weight of active compound is mixed with the stated amount of solvent and emulsifier, and the concentrate is diluted with emulsifier-containing water to the desired concentration. […]
as §5

[4] = system: mustard beetle larvae (Phaedon cochleariae); assay: Phaedon cochleariae spray test; conditions: mortality, Chinese cabbage leaf-disks sprayed
Experimental: as §1, §2, §3, §6
Chinese cabbage (Brassica pekinensis) leaf-disks are sprayed with a preparation of the active ingredient of the desired concentration. Once dry, the leaf disks are infested with mustard beetle larvae (Phaedon cochleariae).
After the specified period of time, mortality in % is determined. 100% means all beetle larvae have been killed and 0% means none of the beetle larvae have been killed. The mortality values determined thus are recalculated using the Colby-formula (see above).

[5] = system: larvae of the diamondback moth (Plutella xylostella); assay: Plutella xylostella spray test; conditions: mortality, cabbage leaves sprayed, 0.05 ppm
Experimental: as §1, §2, §3, §4
After the specified period of time, the mortality in % is determined. […] The mortality values determined thus are recalculated using the Colby-formula (see above).

[6] = system: two spotted spidermite (Tetranychus urticae); assay: Tetranychus urticae spray test, OP-resistant; conditions: mortality, French beans sprayed, 20 g ai/ha
Experimental: as §1, §2, §3, §4, §5

| Structure (SMILES) | Efficacy in % after 3d [1] [%] | Efficacy in % after 6d ([2]; 100 g/ha) [%] | Efficacy in % after 2d ([3]; 2 d) [%] | Efficacy in % after 6d ([3]; 6 d) [%] | Efficacy in % after 2d ([4]; 100 g ai/ha, 2 d) [%] | Efficacy in % after 6d ([2]; 4 g/ha) [%] | Efficacy in % after 3d [5] [%] | Efficacy in % after 6d ([4]; 0.16 g ai/ha) [%] | Efficacy in % after 6d ([4]; 0.8 g ai/ha) [%] | Efficacy in % after 6d [6] [%] | Efficacy in % after 6d ([2]; 0.16 g/ha) [%] |
| --- | --- | --- | --- | --- | --- | --- | --- | --- | --- | --- | --- |
| Cc1cc(C(F)(C(F)(F)F)C(F)(F)F)ccc1NC(=O)c1cccc(I)c1C(=O)NC(C)(C)CS(C)(=O)=O [Flubendiamide (I233), Flubendiamide] | 30 | 0 | 0 | 0 | 0 |  |  |  |  |  |  |
| CNC(=O)c1cc(Cl)cc(C)c1NC(=O)c1cc(Br)nn1-c1ncccc1Cl [Chlorantraniliprole (I231), Chlorantraniliprole] |  |  |  |  |  | 0 | 30 | 0 | 0 |  |  |
| CNC(=O)c1cc(C#N)cc(C)c1NC(=O)c1cc(Br)nn1-c1ncccc1Cl [Cyantraniliprole (I232), Cyantraniliprole] |  |  |  |  |  |  |  |  | 33 | 0 | 0 |
